Data from the supplement of paper PMC10307832.

Columns and labels:
Assay in all cases: relative viability (nuclei count vs DMSO), 5 days (fraction); higher = more cells survive
[1] = compound: CCC1=CN=CN=C1N2CCN(CC2)CC3=NC4=C(N3)C=C(C=C4)C(F)(F)F + Cc1cc(Nc2cc(N3CCN(C)CC3)nc(Sc3ccc(NC(=O)C4CC4)cc3)n2)n[nH]1 [Tozasertib] (partner 0.1 µM)
Procedure, shortened: (§1)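 Lung cancer cell lines were seeded in 1536-well plates and dosed by pin tool the next day, with either a single drug or a fixed anchor-drug dose combined with five library-drug doses (not always all listed) spaced in √10 steps. Five days later, one step fixed the cells and stained their nuclei (final 0.05% Triton X-100, 1% formaldehyde, 1 ug/ml Hoechst), and nuclei were counted on 4× images. Relative viability is the nuclei count in treated wells divided by the count in vehicle wells, and each value is the median of duplicate plates.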

[2] = compound: CCn1c(-c2nonc2N)nc2cnc(Oc3cccc(NC(=O)c4ccc(OCCN5CCOCC5)cc4)c3)cc21 + COc1cccc2cc(-c3nc([C@H]4CC[C@H](C(=O)O)CC4)n4ncnc(N)c34)[nH]c12 [OSI-027] (partner 0.5 µM)
Procedure, shortened: as §1

Mirin + Pictilisib = compound: N=C1NC(=O)/C(=C/c2ccc(O)cc2)S1 [Mirin] + CS(=O)(=O)N1CCN(Cc2cc3nc(-c4cccc5[nH]ncc45)nc(N4CCOCC4)c3s2)CC1 [Pictilisib] (partner 1 µM)
Procedure, shortened: as §1

Mirin + Vorinostat = compound: N=C1NC(=O)/C(=C/c2ccc(O)cc2)S1 [Mirin] + O=C(CCCCCCC(=O)Nc1ccccc1)NO [Vorinostat] (partner 1 µM)
Procedure, shortened: as §1

Row | Cell Line | relative viability ([1]; first compound 0.04 µM) | relative viability ([1]; first compound 0.1265 µM) | relative viability ([1]; first compound 0.4 µM) | relative viability ([1]; first compound 1.265 µM) | relative viability ([1]; first compound 4 µM) | relative viability ([2]; first compound 0.04 µM) | relative viability ([2]; first compound 0.1265 µM) | relative viability ([2]; first compound 0.4 µM) | relative viability ([2]; first compound 1.265 µM) | relative viability ([2]; first compound 4 µM) | relative viability (Mirin + Pictilisib; first compound 0.25 µM) | relative viability (Mirin + Pictilisib; first compound 0.7906 µM) | relative viability (Mirin + Pictilisib; first compound 2.5 µM) | relative viability (Mirin + Pictilisib; first compound 7.906 µM) | relative viability (Mirin + Pictilisib; first compound 25 µM) | relative viability (Mirin + Vorinostat; first compound 0.25 µM) | relative viability (Mirin + Vorinostat; first compound 0.7906 µM) | relative viability (Mirin + Vorinostat; first compound 2.5 µM) | relative viability (Mirin + Vorinostat; first compound 7.906 µM) | relative viability (Mirin + Vorinostat; first compound 25 µM)
1 | 201T | 0.923 | 0.936 | 0.9 | 0.846 | 0.919 | 0.857 | 0.773 | 0.38 | 0.674 | 0.806 | 0.704 | 0.668 | 0.614 | 0.753 | 0.67 | 1.02 | 1.14 | 0.956 | 1.07 | 1.18
2 | A549 |  |  |  |  |  |  |  |  |  |  | 0.541 | 0.512 | 0.55 | 0.403 | 0.321 |  |  |  |  | 
3 | A-427 | 0.209 | 0.218 | 0.21 | 0.174 | 0.177 | 0.585 | 0.545 | 0.328 | 0.411 | 0.352 | 0.749 |  | 0.821 | 0.603 | 0.783 | 0.84 | 0.922 | 0.904 | 0.878 | 0.956
4 | ABC-1 | 0.176 | 0.172 | 0.172 | 0.152 | 0.196 | 0.492 | 0.751 | 0.272 | 0.418 | 0.3 | 0.923 | 0.501 | 0.753 | 0.695 | 0.302 | 1.29 | 1.12 | 1.36 | 0.871 | 0.772
5 | BEN | 0.462 | 0.528 | 0.559 | 0.433 | 0.477 | 0.27 | 0.267 | 0.243 | 0.266 | 0.24 | 0.484 | 0.656 | 0.619 | 0.416 | 0.312 | 0.473 | 0.58 | 0.6 | 0.555 | 0.542
6 | CAL-12T | 0.367 | 0.294 | 0.328 | 0.429 | 0.289 | 0.857 | 0.826 | 0.43 | 0.603 | 0.469 | 0.535 |  | 0.561 |  | 0.368 | 0.622 | 0.868 | 0.886 | 0.828 | 0.697
7 | COR-L23 | 0.219 | 0.207 | 0.201 | 0.157 | 0.183 | 0.686 | 0.54 | 0.326 | 0.207 | 0.144 | 0.8 | 0.721 | 0.854 | 0.738 | 0.687 | 0.453 | 0.585 | 0.488 | 0.327 | 0.31
8 | COR-L 105 | 0.374 | 0.34 | 0.327 | 0.395 | 0.379 | 0.976 | 0.654 | 0.361 | 0.374 | 0.26 | 0.407 | 0.263 | 0.397 | 0.373 | 0.326 | 0.822 | 1.01 | 0.983 | 0.758 | 0.655
9 | Calu-6 |  |  |  |  |  |  |  |  |  |  | 0.997 | 0.934 | 0.862 | 0.761 | 0.597 |  |  |  |  | 
10 | ChaGo-K-1 | 0.206 | 0.256 | 0.233 | 0.195 | 0.224 | 0.679 | 0.521 | 0.313 | 0.393 | 0.307 | 0.667 |  | 0.713 | 0.571 | 0.693 | 0.741 | 0.652 | 0.746 | 0.638 | 0.596
11 | EBC-1 |  |  |  |  |  |  |  |  |  |  | 0.456 | 0.343 | 0.378 | 0.238 | 0.204 |  |  |  |  | 
12 | EKVX | 0.477 | 0.367 | 0.346 |  | 0.445 | 0.839 | 0.77 | 0.613 | 0.65 | 0.545 | 0.39 | 0.422 | 0.396 | 0.394 | 0.378 | 0.784 |  | 0.785 | 0.935 | 0.799
13 | EMC-BAC-2 | 0.293 | 0.3 | 0.279 |  | 0.268 | 0.364 | 0.287 | 0.161 | 0.18 | 0.2 | 0.56 | 0.546 | 0.532 | 0.508 | 0.52 | 0.426 | 0.402 | 0.493 | 0.35 | 0.6
14 | EPLC-272H | 0.257 | 0.225 | 0.262 | 0.327 | 0.332 | 0.363 | 0.339 | 0.246 | 0.234 | 0.247 | 0.35 |  | 0.284 | 0.311 | 0.258 | 0.415 | 0.549 | 0.487 | 0.349 | 0.192
15 | H3255 | 0.63 | 0.413 | 0.674 | 0.436 | 0.715 | 0.831 | 0.713 | 0.603 | 0.506 | 0.638 | 0.516 | 0.444 | 0.493 | 0.306 | 0.564 | 0.547 | 0.678 | 0.846 | 0.789 | 0.814
16 | HARA | 0.106 | 0.108 | 0.0892 |  | 0.0831 | 0.533 | 0.38 | 0.141 | 0.148 | 0.102 | 0.367 | 0.353 | 0.437 | 0.335 | 0.169 | 0.537 | 0.533 | 0.567 | 0.597 | 0.502
17 | HCC-15 | 0.444 | 0.357 | 0.381 | 0.449 | 0.391 | 0.806 | 0.617 | 0.324 |  | 0.536 | 0.789 | 0.411 | 0.665 | 0.551 | 0.517 | 0.902 | 0.955 | 0.915 | 0.838 | 0.82
18 | HCC-44 | 0.955 | 0.962 | 0.905 | 0.597 | 1.06 | 0.533 | 0.423 | 0.175 | 0.111 | 0.225 | 0.7 | 0.819 | 0.602 | 0.541 | 0.474 | 1.12 | 1.2 | 1.05 | 1.15 | 1.35
19 | HCC-78 | 0.572 | 0.549 | 0.446 | 0.434 | 0.376 | 0.43 | 0.429 |  | 0.574 | 0.625 | 0.203 | 0.2 | 0.205 | 0.207 | 0.215 | 0.41 | 0.473 | 0.472 | 0.399 | 0.471
